From article PMC8760490, “Discovery of novel furanylbenzamide inhibitors that target oncogenic tyrosine phosphatase SHP2 in leukemia cells” (The Journal of Biological Chemistry, 2021)

Key:
[1] = biological target: T1, SHP2cat (Homo sapiens, UniProt Q06124); assay: Protein thermal shift (PTS) assay; assay type: binding; conditions: dose response
T1 construct: the SHP2 catalytic domain (SHP2cat; residues 248–527); made in house
T1 sequence (Q06124 248-527): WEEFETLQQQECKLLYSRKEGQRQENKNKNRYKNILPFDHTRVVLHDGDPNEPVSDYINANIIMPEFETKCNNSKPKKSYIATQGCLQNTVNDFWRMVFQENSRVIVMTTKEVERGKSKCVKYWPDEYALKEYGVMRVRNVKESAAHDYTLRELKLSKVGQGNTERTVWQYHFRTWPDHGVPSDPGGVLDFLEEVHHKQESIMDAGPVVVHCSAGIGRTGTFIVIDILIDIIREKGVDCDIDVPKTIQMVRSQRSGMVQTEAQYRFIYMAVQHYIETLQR
From the text: We confirmed specific and dose-dependent binding of inhibitors to SHP2 by PTS, which monitors the thermal stability of a target protein in vitro ([40]). […] In addition, we confirmed the inhibitory activity of several furanylbenzamide inhibitors, including the top two compounds SBI-2130 and SBI-4668, in SHP2cat inhibition assays using the alternative substrate 3-O-methylfluorescein phosphate (OMFP), which features a peak fluorescence emission that is red-shifted by ∼75 nm compared with DiFMUP. The Km value of OMFP for SHP2cat was determined to be 50 μM. An OMFP fluorescence intensity–based assay was used to perform inhibitor dose–response experiments and determine IC50 values.
Differential scanning fluorimetry (also known as protein thermal shift) measurements of SHP2cat were performed using optimized methods and conditions in accordance with those previously described ([36], [41], [49]). SBI-4668 was spotted at different concentrations into MicroAmp 384-well real-time PCR plates (catalog no.: 4483285; Applied Biosystems) using an Echo 555 Liquid Handler. […] Plates were analyzed using a ViiA 7 Real-Time PCR instrument (Applied Biosystems) and a 12 min temperature gradient with a temperature increase of 0.075 °C/s. The melting temperature and thermal profiles were determined as described previously using Protein Thermal Shift Software, version 1.3 (Applied Biosystems) ([36], [49]).

[2] = test system: BT-549 TNBC cells; assay: TNBC cell viability (CellTiter-Glo), BT-549; assay type: cell-based; conditions: Homo sapiens, BT-549; 72 h per text; 5 days per legend and method
Description: Inhibition of SHP2 has been reported to inhibit the growth of cancer cells including Kasumi-1 acute myeloid leukemia (AML) and KYSE-520 esophageal cancer cells ([30]). […] Thus, we treated two TNBC cell lines, BT-549 and MDA-MB-468, with SBI-4668 or the SHP2 allosteric inhibitor SHP099 at various concentrations and determined cell viability after 72 h, compared with the vehicle control (Fig. 4C). […] Next, we performed an 11-day colony formation assay with TNBC cells treated with SBI-4668 or SHP099 at 5, 10, or 20 μM (Fig. 4D).
Triple-negative breast cancer cell viability was assessed using the ATP-depletion assay CellTiter-Glo. Briefly, 2500 cells in 25 μl media (RPMI + 10% FBS + 1× penicillin–streptomycin [Omega Scientific]) were seeded per well of a 384-well tissue culture–treated plate (Greiner). About 25 nl of 1000× test compound were added using a Labcyte Echo acoustic dispenser, and the cells were incubated for 5 days before addition of 10 μl of CellTiter-Glo reagent as described by the manufacturer. Luminescence was detected on a BioTek Synergy 2 microplate reader, and the values normalized to those of vehicle (DMSO)-treated controls before being plotted using GraphPad Prism.

[3] = test system: phospho-ERK1/2 (p-ERK1/2) in MOLM-13 AML cells; assay: p-ERK1/2 immunoblot, MOLM-13; assay type: cell-based; conditions: SBI-4668 3, 10, 30 μM, RMC-4550 1 μM
Description: Because SHP2 activity is critical for ERK activation, we used phospho-ERK1/2 (p-ERK1/2) as a more direct readout of SHP2 inhibitor efficacy. […] This p-ERK rebound in MOLM-13 cells treated with RMC-4550 is reminiscent of previously reported data from human hepatoma Hep3B cells treated with SHP099 ([34]). We also tested the effects of SBI-4668 or RMC-4550 on two patient-derived AML samples (Fig. 4F).
Cells cultured in RPMI medium were treated as indicated in the legends to the figures. Total protein extracts were prepared in modified radioimmunoprecipitation assay lysis buffer (25 mM Tris–HCl, pH 7.4, 10% glycerol, 0.2% Triton X-100, 150 mM NaCl, 2 mM Na3VO4, and 1 mM EDTA) containing a protease inhibitor cocktail (Roche Applied Science). Equal amounts of protein were separated on 4 to 12% (p-ERK1/2 blots) or 4 to 20% (SHP2 blots) Bis–Tris gels by SDS-PAGE and transferred to nitrocellulose (p-ERK1/2 blots) or 0.2 μm polyvinylidene fluoride (SHP2 blots) membranes. Membranes were blocked in 5% dry milk (Bio-Rad) in Tris-buffered saline–Tween-20 (TBS–T) (0.1% v/v) for 1 h at RT. Protein-bound membranes were incubated with indicated primary antibody overnight at 4 °C. After washing three times with TBS-T, membranes were incubated for 1 h with horseradish peroxidase–conjugated secondary antibody and then visualized by an ECL Prime detection system (GE Healthcare). Immunoblotting experiments were carried out at least three times, and representative images are shown. Densitometric quantitation of immunoblots was performed using Image Studio Lite Software (LI-COR). Changes of phosphorylated ERK1/2 to total ERK1/2 ratios are expressed as percentage of the vehicle-treated controls. The following antibodies were used: Phospho-Erk1/2 Ab (catalog no.: 9101S; Cell Signaling); total Erk1/2 Ab (catalog no.: 9102S; Cell Signaling); SHP2 Ab (catalog no.: A301-544A; lot no.: 1; Bethyl); and GAPDH (14C10) mAb (catalog no.: 2118S; lot no.: 14; Cell Signaling).

O=C(Nc1ccccc1)c1cc(-c2ccc(/C=C3\Sc4ccccc4C3=O)o2)ccc1O [SBI-4668, (Z)-2-Hydroxy-5-(5-((3-oxobenzo[b]thiophen-2(3H)-ylidene)methyl)furan-2-yl)-N-phenylbenzamide]
change of SHP2cat melting temperature (Tm) vs DMSO [1]: dose-dependently increased the melting temperature
IC50 [2]: 5.4 µM
p-ERK1/2 levels, MOLM-13, 3 h ([3]; 3 h): dose-dependently inhibits ERK1/2 activation
p-ERK1/2 levels, MOLM-13, 24 h ([3]; 24 h): dose-dependently inhibits ERK1/2 activation
